Data on 89 compounds can be found in PubChem BioAssay AID1508591.

Molecules are shown by their SMILES.

The conditions of the series: rat; liver microsomes; pH 7.4; 15.0 min; 1.0 µM.
As usually defined, the half-life is the time in which the quantity being followed falls by half. `CC(C)c1ccc(S(=O)(=O)c2cnc(SCC(=O)Nc3ccc4c(c3)OCCO4)[nH]c2=O)cc1` showed a half-life of 3.84 min.

With `CC1=C(C(=O)NC2CCCC2)C(c2nn(C)cc2Cl)N=C(Nc2nc3ccccc3o2)N1` (centres undefined), the half-life is 2.7 min.

Compound `CC(C)Nc1oc(-c2cccc3ccccc23)nc1C#N` registered a half-life of 24 min.

For the compound `N#Cc1cc(-c2nc(Nc3ccc(F)c(F)c3)c3ccccc3n2)ccn1`, the half-life was > 30 min.

For `COc1ccc(-c2ccc3nc(-c4cc(F)ccc4F)oc3c2)c(OC)c1OC`, the half-life is > 30 min.

With `O=C(CCCCn1c(=O)[nH]c2ccsc2c1=O)N1CCN(c2cccc(Cl)c2)CC1`, the half-life came out at 8.06 min.

`O=C(Oc1ccc[nH]c1=O)c1cc([N+](=O)[O-])cc([N+](=O)[O-])c1` returned a half-life of 1.46 min.

For `O=C(c1ccc2c(c1)ncn2-c1ccc(C(F)(F)F)cc1)N1CCCCC1`, the half-life worked out at 7.6 min.

In turn, `Cc1cccc(-n2ncc3c2CCCC3NC(=O)c2c(F)ccc(F)c2F)c1C` (centres undefined) returned a half-life of 0.96 min.

As for `Cc1cc(NS(=O)(=O)c2ccc(NC(=O)c3oc4ccccc4c3C)cc2)nc(C)n1`, the half-life was > 30 min.

In turn, `Brc1ccccc1-c1nc(NCc2ccc(-c3cccnc3)cc2)c2ccccc2n1` had a half-life of 6.55 min.

Regarding `O=C(NC1CCCc2c1cnn2-c1ccc(F)cc1F)c1ccc(C2(C(F)(F)F)N=N2)cc1` (centres undefined), the half-life was > 30 min.

Take `COC(=O)c1ccc2c(C(=Nc3ccc(N(C)C(=O)CN4CCN(C)CC4)cc3)c3ccccc3)c(O)[nH]c2c1`: the half-life was > 30 min.

Consider `Cc1ccccc1C(=O)N1CCc2cc(-c3csc(NC(=O)Cc4ccc5c(c4)OCO5)n3)ccc21`, for which the half-life came out at 10.2 min.

`CN1C(=O)c2ccccc2[S@](=O)c2ccc(C(=O)NCCc3cccs3)cc21`: the half-life was found to be 7.2 min.

As to `O=C(Nc1nnc(-c2cccs2)o1)c1ccc(Cl)cc1`, the half-life turned out to be 2.9 min.

The compound `CCOC(=O)c1c(NC(=O)CN2CCCCC2)sc2c1CCN(C(=O)OCC)C2` yielded a half-life of 5.2 min.

`Clc1cccc(-c2ccc(-c3nnc(CCCc4ccc5cccnc5n4)o3)cc2)c1` yielded a half-life of 2.3 min.

`COc1ccc(C(=O)Nc2nc(-c3ccccc3)cs2)c(NS(=O)(=O)c2ccc(C)cc2)c1` gave a half-life of 6.5 min.

With `O=C(NCCCN1CCCC1=O)c1ccc(-c2ncc3cnc(-c4ccccc4)cn23)cc1`, the half-life was > 30 min.

Regarding `[2H]C([2H])(Nc1nc(-c2ccccc2C([2H])(C([2H])([2H])[2H])C([2H])([2H])[2H])ncc1C)c1ccc(-n2ccnn2)cc1`, the half-life was found to be 13 min.

For `CCS(=O)(=O)c1cccc(C(=O)Nc2ccc(-c3nc4ccccc4s3)c(O)c2)c1`, the half-life is > 30 min.

`Cc1ccccc1S(=O)(=O)N1CCc2cc(-c3nc(NC(=O)Cc4ccc5c(c4)OCO5)sc3C)ccc21` gave a half-life of 5 min.

Compound `CCOc1ccc(CCNC(=O)c2ccc(Oc3ccccc3)cc2)cc1OCC` registered a half-life of 1.9 min.

For `Cc1ccc(-n2ncc3c(NCCCN(C)C)ncnc32)cc1Cl`, the half-life turned out to be 8.9 min.

In turn, `CCOc1ccc(OCC)c(NC(=O)C(NS(=O)(=O)c2ccc(Br)s2)c2ccccc2)c1` (centres undefined) showed a half-life of 2.04 min.

With `CCOc1ccccc1N(CC(=O)N1CCOCC1)S(=O)(=O)c1ccc(SC)cc1`, the half-life was 1.45 min.

With `O=[N+]([O-])c1ccc(CNc2ccc([S+](=O)([O-])Nc3nccs3)cc2)c(O)c1`, the half-life turned out to be 13 min.

In turn, `Cc1ccc(-n2nc3c(=O)n(CCCC(=O)NC(C)c4ccccc4)nc(C)c3c2C)cc1` (centres undefined) gave a half-life of 2.27 min.

Take `COc1ccc2nc(C)cc(Nc3ccc(Cl)c(Cl)c3)c2c1`: the half-life was found to be 15.5 min.

`CCOC(=O)c1nnc(N[S+](=O)([O-])c2ccc(NC(=O)Cc3ccc(Cl)c(Cl)c3)cc2)s1` showed a half-life of 6 min.

`CCN(CC)C(=O)c1sc2c(c1C)c(=O)n(Cc1ccccc1)c(=O)n2CC(=O)Nc1ccc(OC)cc1`: the half-life amounted to 5.16 min.

For the compound `CC1=C(C(=O)Nc2ccccc2)C(c2ccc[nH]2)n2ncnc2N1` (centres undefined), the half-life is > 30 min.

With `CCc1ccccc1Nc1ncnc2c1cnn2-c1ccc(Cl)cc1`, the half-life is 7.13 min.

With `O=C(NC1CC1)c1nc(-c2cccnc2)c2cnccn12`, the half-life is > 30 min.

Take `COc1cc(Cl)c(C)cc1Nc1c2c(nc3ccccc13)CCC2`: the half-life came to 1.75 min.

`O=C(Nc1nc(-c2ccccn2)cs1)c1cccc(-n2cnnn2)c1`: the half-life is > 30 min.

For `COC(C)(C)CCn1nc(Nc2c(C)cccc2C)c2cnc(Nc3ccc(OCCN4CCCC4)c(F)c3)nc21`, the half-life came to 3.28 min.

The compound `CC(=O)c1c(C)c(C(=O)Nc2cccc([S+](=O)([O-])N3CCCCCC3)c2)n(C)c1C` registered a half-life of 1.4 min.

The compound `Cc1nn(Cc2ccc(Cl)cc2)c(C)c1NC(=O)c1cc(-c2ccc3c(c2)OCO3)on1` showed a half-life of 6.4 min.

Regarding `Cc1nn2c(c1-c1ccccc1-c1ccccc1)N(Cc1ccccc1)CCC2`, the half-life was found to be 1.23 min.

`FC(F)(F)c1cccc(N2CCN(C(=S)Nc3cc4ccccc4cn3)CC2)c1`: the half-life is > 30 min.

The compound `Cc1ccc(C)c(NC2=C(c3ccc(C(F)(F)F)cc3)C(=O)c3ccccc32)c1` registered a half-life of 9.11 min.

Compound `Fc1ccc(Nc2nc(-c3ccncc3)nc3ccccc23)cc1F` yielded a half-life of 9.82 min.

Take `O=C(NCCc1cnc[nH]1)c1ccc(-c2ncc3cnc(-c4cccc(F)c4)cn23)cc1`: the half-life is > 30 min.

In the case of `O=C(Nc1nc(-c2ccccc2)cs1)c1ccncc1NS(=O)(=O)c1ccc(-c2ccccc2)cc1`, the half-life came out at 2 min.

Take `CCc1ccc2ncc(C(=O)c3ccc(C)c(C)c3)c(N3CCC(C(N)=O)CC3)c2c1`: the half-life was found to be 1.47 min.

For the compound `O=C(NC1CCCc2c1cnn2-c1ccc(F)cc1F)c1ccccc1` (centres undefined), the half-life is > 30 min.

Take `Cc1ccc(S(=O)(=O)Nc2cnccc2C(=O)Nc2nc(-c3ccncc3)cs2)cc1`: the half-life is 17 min.

Consider `O=C(Nc1ccc(-c2nc3cc(NC(=O)c4ccccc4Cl)ccc3o2)cc1)c1ccccc1Cl`, for which the half-life is > 30 min.

Take `Fc1cc(Nc2nc(-c3ccncc3)nc3ccccc23)ccc1OCC(F)(F)F`: the half-life was determined as 28 min.

`NC(=O)C1CCN(c2ncc(-c3ccc4c(c3)OCCO4)s2)CC1` gave a half-life of 4.94 min.

The compound `Fc1cc(F)cc(Nc2nc(-c3ccncc3)nc3ccccc23)c1` gave a half-life of 15 min.

As for `O=C(c1cccc(F)c1)N1CCC2(CCN(Cc3cc(C(F)(F)F)cc(C(F)(F)F)c3)CC2)CC1`, the half-life is > 30 min.

`Fc1cnc(-c2ccccc2C(F)F)nc1NCc1ccc(-c2cccnc2)cc1` showed a half-life of 7.1 min.

For `COc1ccc(-n2nc(C3CCCN(C(=O)Cc4ccccn4)C3)[nH]c2=O)cc1` (centres undefined), the half-life is > 30 min.

For `c1ccc(-c2nnc3n2NC(c2ccc4c(c2)OCO4)S3)cc1` (centres undefined), the half-life was > 30 min.

For `COc1c(Cl)cc2c([nH]c3cnccc32)c1NC(=O)c1cccnc1C`, the half-life was > 30 min.

Compound `Cc1ccc(-c2nc3ccccc3o2)cc1NC(=O)COc1ccccc1` returned a half-life of 3.5 min.

Regarding `CC(=O)c1ccc(N2CCN(S(=O)(=O)c3ccc4[nH]c(=O)[nH]c4c3)CC2)cc1`, the half-life was > 30 min.

`Cc1cc(SCC(=O)c2ccccc2)n2ncc(-c3ccccc3)c2n1` came in with a half-life of 3.77 min.

With `c1ccc(-c2cn[nH]c2)cc1`, the half-life came to 13.1 min.

In turn, `COc1cccc(CN2CCCC(c3nc(-c4ccncc4)ncc3-c3ccccc3)C2)c1O` (centres undefined) had a half-life of 5.95 min.

`Cc1ccc(-c2nnc(N3CCC(C(N)=O)CC3)s2)cc1` had a half-life of 6.38 min.

Compound `COc1cc(C(=O)N2CCN(c3cc(Cl)ccc3Cl)CC2)cc(OC)c1OC` had a half-life of 4.31 min.

For `CC(=O)OCCN1C(=O)c2c(C)nc3ccc(S(=O)(=O)N4CCOCC4)cc3c2C1=O`, the half-life is 2.05 min.

In the case of `Cc1cnc(-c2ccccc2C2COC2)nc1NCc1ccc(-n2ccnn2)cc1`, the half-life was > 30 min.

Consider `Fc1ccc(Nc2nc(-c3ccnc(C(F)(F)F)c3)nc3ccccc23)cc1F`, for which the half-life is > 30 min.

Regarding `Cc1noc(C)c1C(=O)N1CCC2(CCCN(Cc3ccccc3)C2)CC1`, the half-life was 7.2 min.

Regarding `COc1cc(OC)c2c(=O)[nH]c(-c3cc(C)c(OCCO)c(C)c3)nc2c1`, the half-life is > 30 min.

In the case of `Cc1cc(-c2nnc3n2CCCCC3)c(C)n1-c1ccc(Cl)cc1`, the half-life was found to be 1.9 min.

As to `OCCOCCN1CCN(C(c2ccccc2)c2ccc(Cl)cc2)CC1` (centres undefined), the half-life is 5.93 min.

`CC1=Nc2cc(C(=O)NCCc3ccccc3)ccc2Sc2c(C)ccc(C)c21`: the half-life is 1.54 min.

Consider `CC1=NN(c2ccc(C(=O)O)cc2)C(=O)/C1=C/c1ccc(-c2cc(C)c(C)cc2[N+](=O)[O-])o1`, for which the half-life was 22.2 min.

With `CN(C)C(=O)c1nc(-c2ccc(Cl)nc2)c2ccccn12`, the half-life is > 30 min.

As for `COc1ccc(C(=O)NC2CCCc3c2[nH]c2ccccc32)cc1OC` (centres undefined), the half-life came out at 24.6 min.

Regarding `Nc1c(-c2ccccc2)cnc2c(-c3ccccc3)cnn12`, the half-life is > 30 min.

Turning to `COc1cccc(C(=O)Nc2nnc(S(=O)(=O)N3CCOCC3)s2)c1`, the half-life was > 30 min.

For the compound `O=S(=O)(Nc1ccc2ccccc2c1)c1ccc(NCc2cccc(Cl)c2O)cc1`, the half-life was 13 min.

`O=S(=O)(c1ccc2ccccc2c1)N1CCN(c2nc(-c3cccs3)nc3ccccc23)CC1` came in with a half-life of 2.34 min.

Compound `CC(=O)Nc1ccc(NC(=O)C(NS(=O)(=O)c2ccc(Br)s2)c2ccccc2)cc1` (centres undefined) registered a half-life of 8.13 min.

The compound `CCOc1cc(-c2nccc3cc(OC)c(OC)cc23)cc(OCC)c1OCC` had a half-life of 2.8 min.

As for `O=C(Nc1ncc(Cc2ccc(C(F)(F)F)cc2)s1)c1cn(-c2ccccc2)cn1`, the half-life was > 30 min.

The compound `Clc1ccccc1CSc1nc2ncc(Br)cc2[nH]1` came in with a half-life of 6.5 min.

With `O=C(Nc1ccc(S(=O)(=O)Nc2ncc(-c3ccccc3)s2)cc1)c1ccc2ccccc2c1`, the half-life is > 30 min.

Regarding `O=C(Nc1nc(-c2ccccc2)cs1)c1ccncc1NS(=O)(=O)c1ccc2ccccc2c1`, the half-life was determined as 8.4 min.

Regarding `O=C(Nc1nc2cc(C(F)(F)F)ccc2s1)c1ccc(-c2cccc([N+](=O)[O-])c2)o1`, the half-life is > 30 min.

With `CCOc1ccc(N2CC(c3nc(-c4ccccn4)no3)CC2=O)cc1` (centres undefined), the half-life is > 30 min.

Consider `COc1ccc(C2c3c(oc4ccc(Cl)cc4c3=O)C(=O)N2CCCN(C)C)cc1OC` (centres undefined), for which the half-life was > 30 min.
